Results from patent US10946094B2, “Adenoassociated viral mediated persistant anti-VEGF therapy for ovarian cancer” (Cornell University, priority 2015, dated 2021).

Tests used:
[1] = test system: A2780 ovarian cancer cells; assay: Survival of A2780 tumor-bearing mice pretreated with chemotherapeutic, followed by AAV vector; type: in vivo, Balb/c nude mice; conditions: for Efficacy as single agents at the doses and schedules used: survival of A2780 tumor-bearing mice
Procedure: Xenografts of human ovarian cancer cells were established by administering 5 million A2780 ovarian cancer cells intraperitoneally in 6 to 8 week old female Balb/c nude mice. Survival was analyzed in the mice which were either left untreated, treated with the chemotherapeutic topotecan in combination with an AAV vector, or treated with the chemotherapeutic paclitaxel in combination with an AAV vector. To establish the topotecan-AAVrh. 10BevMab combination treatment model, 2 weeks after injection of the A2780 ovarian cancer cells, the mice were treated with topotecan at 0.625 mg/kg body weight/day, 5 times/week for 3 weeks (see, Delord et al., Ann. Oncol., 16: 1889-1897 (2005)). […] To establish the paclitaxel-AAVrh.10BevMab combination treatment model, 1 week after injection of the A2780 ovarian cancer cells, the mice were treated with paclitaxel at 20 mg/kg body weight, once/week for 2 weeks (see, Vassileva et al., Mol Cancer Ther., 7: 630-637 (2008)).

recurrent ovarian cancer = conditions: single agent, patients with recurrent ovarian cancer; cited from earlier work

Row | Molecule | Efficacy as single agents at the doses and schedules used [1] | Median survival ([1]; topotecan model: 0.625 mg/kg/day, 5 times/week for 3 weeks from week 2, vector at week 5) [days] | Median survival ([1]; paclitaxel model: 20 mg/kg once/week for 2 weeks from week 1, vector at week 3) [days] | Responsive rate (recurrent ovarian cancer) [%]
1 | CC[C@@]1(O)C(=O)OCc2c1cc1n(c2=O)Cc2cc3c(CN(C)C)c(O)ccc3nc2-1 [Topotecan, topotecan] | efficacious | 50 |  | 
2 | CC(=O)O[C@H]1C(=O)[C@@]2(C)[C@H]([C@H](OC(=O)c3ccccc3)[C@]3(O)C[C@H](OC(=O)[C@H](O)[C@@H](NC(=O)c4ccccc4)c4ccccc4)C(C)=C1C3(C)C)[C@]1(OC(C)=O)CO[C@@H]1C[C@@H]2O [paclitaxel] | efficacious |  | 31 | 
3 | Bevacizumab |  |  |  | 21
